This experiment relates to coronary artery smooth muscle cells+(IL-1p, TNFα and IFNγ). As to the kind of experiment: BioMAP CASM3C system. Type of experiment: cell-based, human. To be noted: Th1 vascular smooth muscle inflammation; concentrations of FIGS. 12-14. The text has this:
The BioMAP systems consist of human primary cell-based systems designed to model different aspects of the human body in an in vitro format. The 12 systems tested characterized the test compounds across a broad set of systems modeling various human disease states. BioMAP systems were constructed with one or more primary cell types from healthy human donors, with stimuli (such as cytokines or growth factors) added to capture relevant signaling networks that naturally occur in human tissue or pathological conditions. […] Soluble factors from supernatants were quantified using either HTRF® detection, bead-based multiplex immunoassay or capture ELISA. Overt adverse effects of test agents on cell proliferation and viability (cytotoxicity) were detected by sulforhodamine B (SRB) staining, for adherent cells, and alamarBlue® reduction for cells in suspension. […] Each tested compound generated a signature BioMAP profile that was created from the changes in protein biomarker readouts within individual system environments. […] Each readout was measured quantitatively by immune-based methods that detected protein (e.g., ELISA) or functional assays that measured proliferation and viability. BioMAP readouts were diverse and included cell surface receptors, cytokines, chemokines, matrix molecules and enzymes. […]

For `CC[C@@H]1[C@H](F)C(=O)N[C@@H]1COc1nccc2cc(C(N)=O)c(OC)cc12` [PF-06650833, 1-(((2S,3S,4S)-3-Ethyl-4-fluoro-5-oxopyrrolidin-2-yl)methoxy)-7-methoxyisoquinoline-6-carboxamide], the “Inhibition of biomarker readouts in the CASM3C system” value is “IL-6”.

As for `C[C@@H]1CCN(C(=O)CC#N)C[C@@H]1N(C)c1ncnc2[nH]ccc12` [tofacitinib, 3-((3R,4R)-4-Methyl-3-(methyl(7H-pyrrolo[2,3-d]pyrimidin-4-yl)amino)piperidin-1-yl)-3-oxopropanenitrile], the “Inhibition of biomarker readouts in the CASM3C system” value is listed as “MIG”.

For the origin of these results see patent US20220378707A1, “1-(((2S,3S,4S)-3-ETHYL-4-FLUORO-5-OXOPYRROLIDIN-2-YL)METHOXY)-7-METHOXYISOQUINOLINE-6-CARBOXAMIDE COMBINATIONS AND ORAL DOSAGE FORMS” (Pfizer Inc., priority 2019, published 2022).
